Data taken from US20150119422A1, “SIMETHICONE FORMULATION” (DISPHAR INTERNATIONAL B.V., priority 2011, published 2015).
Counter-ions that a name gives are not always drawn.

Format: physicochemical
Details: pH range of 1 to 7
Protocol: Dissolution studies for determining release of the active ingredient at various pHs were carried out using a TDT-08 L dissolution apparatus from Electrolab®.
The above-mentioned tablets were studied for release profile, at 30 minutes, in solutions of varied pH such as 1.2, 4.5 and 6.8 respectively in aqueous solutions of 0.1 N HCl, acetate buffer and phosphate buffer.

Compound: CN(C)C(=O)C(CCN1CCC(O)(c2ccc(Cl)cc2)CC1)(c1ccccc1)c1ccccc1 [loperamide hydrochloride]
- pH dependence of release / dissolution: pH dependent dissolution characteristics
